Assay results as given in patent US20240108612A1, “PHARMACEUTICAL COMPOSITION FOR ENHANCING ANTICANCER EFFECT OF PROTAC, INCLUDING IU1-SERIES UBIQUITIN-SPECIFIC PROTEASE 14 INHIBITOR AS ACTIVE INGREDIENT” (DAEGU GYEONGBUK INSTITUTE OF SCIENCE AND TECHNOLOGY, priority 2021, published 2024).
Peptide text beside a SMILES is read from it. * marks the point of attachment. Cbz = O=C(OCc1ccccc1)*

Legend:
CDK9 protein [1] = target: T1, CDK9 protein (Homo sapiens, UniProt P50750); test: CDK9 protein degradation by Western blotting in HeLa cells; format: cell-based; parameters: endogenous in cells; host or cells: HeLa (ATCC); conditions: for CDK9 protein level when inhibitor is treated together with PROTAC and IU1: proteasome or autophagy inhibitor added to CDK9 PROTAC and IU1, FIG. 4C; for Enhancement of degradation effect of CDK9 PROTAC, comparison with PR-619: PR-619 at different concentrations, FIG. 16
T1 sequence (P50750 whole entry): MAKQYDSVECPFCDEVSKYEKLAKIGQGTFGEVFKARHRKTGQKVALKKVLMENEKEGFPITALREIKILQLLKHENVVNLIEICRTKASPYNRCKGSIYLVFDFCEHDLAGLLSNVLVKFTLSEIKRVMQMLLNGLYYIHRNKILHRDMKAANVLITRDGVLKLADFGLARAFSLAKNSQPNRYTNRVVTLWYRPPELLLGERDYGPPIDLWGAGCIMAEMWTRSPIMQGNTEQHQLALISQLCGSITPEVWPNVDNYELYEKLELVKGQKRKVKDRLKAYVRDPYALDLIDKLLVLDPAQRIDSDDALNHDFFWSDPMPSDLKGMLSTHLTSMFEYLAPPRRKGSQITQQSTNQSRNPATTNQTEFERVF
T1 sequence (O60563 whole entry partner): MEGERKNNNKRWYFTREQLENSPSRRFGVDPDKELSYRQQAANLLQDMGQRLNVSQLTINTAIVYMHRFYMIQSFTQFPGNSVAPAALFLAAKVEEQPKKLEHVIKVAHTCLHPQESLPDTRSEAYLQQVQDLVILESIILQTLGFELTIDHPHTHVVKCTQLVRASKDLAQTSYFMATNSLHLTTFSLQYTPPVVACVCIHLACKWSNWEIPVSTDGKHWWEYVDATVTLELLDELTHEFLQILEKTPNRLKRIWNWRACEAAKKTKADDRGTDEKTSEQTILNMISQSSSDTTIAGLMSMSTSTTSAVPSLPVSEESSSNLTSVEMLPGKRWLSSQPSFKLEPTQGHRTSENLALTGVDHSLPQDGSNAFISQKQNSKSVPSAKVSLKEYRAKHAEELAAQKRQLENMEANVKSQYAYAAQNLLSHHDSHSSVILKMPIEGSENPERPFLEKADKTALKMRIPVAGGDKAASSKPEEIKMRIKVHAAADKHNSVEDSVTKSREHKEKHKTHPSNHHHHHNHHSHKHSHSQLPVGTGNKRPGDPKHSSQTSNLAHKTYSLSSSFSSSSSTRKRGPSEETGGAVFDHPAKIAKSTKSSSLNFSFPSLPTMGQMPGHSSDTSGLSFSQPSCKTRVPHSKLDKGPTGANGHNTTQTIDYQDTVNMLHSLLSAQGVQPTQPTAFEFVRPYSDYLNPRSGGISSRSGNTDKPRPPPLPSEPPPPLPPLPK
Protocol: (§1) HeLa cells (cervical cancer cells) and LNCaP cells (prostate cancer cells) that were used for the experiments of the present disclosure were obtained from the American Type Culture Collection (ATCC), and were cultured in Dulbecco's Modified Eagle's Medium (DMEM, 1×) or RPMI-1640 (1×) medium, each containing 10% FBS, 1% penicillin/streptomycin and 1% L-glutamine, in a 37° C., 5% CO2 cell incubator. For experiments with PROTAC and deubiquitinase (DUB) inhibitors such as IU1 and IU1-47, 5×10^5 (HeLa) or 1×10^6 (LNCaP) cells were seeded into each well of a 12-well plate (Corning, #3513) one day before inhibitor treatment and then cultured in an incubator. Twenty-four hours after incubation, each well was replaced with medium containing serial dilutions of the compound and incubated under the same conditions for no more than 24 hours. As for all controls, the same amount of DMSO, which is a vehicle, was used for that of the compound treated with the experimental groups.
(§2) To prepare samples for Western blotting, HeLa and LNCaP cells were washed once with ice-cold PBS (1×) and lysed using RIPA buffer (ROCKLAND, MB-030-050) supplemented with protease inhibitor cocktail (Roche), 1 mM PMSF, and 1 mM DTT, or 1% SDS lysis buffer [1% (w/v) SDS, 10 mM Tris-HCl, 1 mM EDTA, pH 8.0]. All lysates were quantified by BCA protein assay (Thermo Fisher Scientific), and then 15 to 30 μg of each lysate was run by SDS-PAGE. Afterwards, the experiment was performed in the following order: transfer to PVDF membrane, treatment with a blocking solution (5% BSA or 5% non-fat dry milk in 1× TBST), treatment with designated primary antibody, and treatment with HRP-linked secondary antibody. Between treatments, washing was performed several times with excess 1× TBST. Each membrane was image-analyzed and quantified for protein signals using ChemiDoc (iBright750, Invitrogen).
Data obtained through Western blotting were quantified using iBright analysis software, and the levels of all target proteins were normalized with GAPDH. After quantification and normalization, DC50 values of the compounds used in the experiments of the present disclosure were derived through nonlinear regression using Graph Pad Prism software.

SHP-2 protein = target: T2, SHP-2 protein (Homo sapiens, UniProt Q06124); test: SHP-2 protein degradation by Western blotting in HeLa cells; format: cell-based; conditions: IU1 in combination with SHP-2 PROTAC, FIGS. 12A, 12B
T2 construct: endogenous in cells; host or cells: HeLa (ATCC)
T2 sequence (Q06124 1-593): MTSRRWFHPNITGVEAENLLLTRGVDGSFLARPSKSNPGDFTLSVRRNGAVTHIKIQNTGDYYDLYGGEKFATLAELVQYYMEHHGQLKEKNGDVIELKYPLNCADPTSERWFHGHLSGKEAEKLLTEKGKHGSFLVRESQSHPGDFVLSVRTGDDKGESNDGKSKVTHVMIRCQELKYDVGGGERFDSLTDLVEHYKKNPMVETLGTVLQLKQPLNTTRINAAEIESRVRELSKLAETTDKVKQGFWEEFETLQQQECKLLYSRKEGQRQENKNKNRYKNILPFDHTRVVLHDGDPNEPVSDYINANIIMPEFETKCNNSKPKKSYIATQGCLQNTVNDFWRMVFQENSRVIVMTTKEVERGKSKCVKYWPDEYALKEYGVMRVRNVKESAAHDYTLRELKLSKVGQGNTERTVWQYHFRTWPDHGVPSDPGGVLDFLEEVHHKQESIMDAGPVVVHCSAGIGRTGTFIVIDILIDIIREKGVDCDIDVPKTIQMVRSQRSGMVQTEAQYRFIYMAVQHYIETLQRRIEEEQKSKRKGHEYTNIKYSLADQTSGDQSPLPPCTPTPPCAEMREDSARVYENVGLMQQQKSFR
Protocol: as §2
In addition, for SHP-2 PROTAC, which is another VHL-based PROTAC other than BRD4 PROTAC, it was confirmed whether the degradation effect for SHP-2 protein was enhanced under experimental conditions similar to those in the experiment in FIG. 7.

BRD4 protein = target: T3, BRD4 protein (Homo sapiens, UniProt O60885); test: BRD4 protein degradation by Western blotting; format: cell-based; conditions: 50 μM IU1 with BRD4 PROTAC; 1% SDS lysis buffer or RIPA buffer; FIG. 11
T3 construct: endogenous in cells
Protocol: as §2
In order to determine whether the USP14 inhibitor of the present disclosure can enhance protein degradation capability for PROTACs other than CDK9 PROTACs, which were confirmed through experiments in Examples 2 and 4, it was confirmed whether the effect of degradation of BRD4 protein by BRD4 PROTAC was enhanced by IU1 treatment. […]

HeLa cells [2] = conditions: FIG. 8
Protocol: To measure cell viability by treatment with the compound of the present disclosure, HeLa and LNCaP cells were seeded in a 96-well plate (SPL, #33396) at 500 cells/well (HeLa) or 3000 cells/well (LNCaP). The cells were seeded and cultured in an incubator at 37° C. and 5% CO2. Twenty four hours later, the medium was replaced with compound-containing medium and incubated under the same conditions in an incubator for 48 hours. Afterwards, cell viability was measured through luminescence analysis in an Envision microplate reader (Perkin Elmer) using the ATP-lite 1 step assay kit (Perkin Elmer).
The results measured in the experiments to confirm cell viability were initially processed using Excel, and then the IC50 values were derived through nonlinear regression analysis using Prism software.

CDK9 protein [3] = target: T1, CDK9 protein; test: CDK9 protein degradation by Western blotting in LNCaP cells; format: cell-based; parameters: endogenous in cells
Protocol: as §1, with “Twenty-four hours after incubation, each well was replaced with medium containing serial dilutions of the compound and incubated under the same conditions for no more than 24 hours. As for all controls, the same amount of DMSO, which is a vehicle, was used for that of the compound treated with the experimental groups.” left out
To prepare samples for Western blotting, HeLa and LNCaP cells were washed once with ice-cold PBS (1×) and lysed using RIPA buffer (ROCKLAND, MB-030-050) supplemented with protease inhibitor cocktail (Roche), 1 mM PMSF, and 1 mM DTT, or 1% SDS lysis buffer [1% (w/v) SDS, 10 mM Tris-HCl, 1 mM EDTA, pH 8.0]. All lysates were quantified by BCA protein assay (Thermo Fisher Scientific), and then 15 to 30 μg of each lysate was run by SDS-PAGE. […] Each membrane was image-analyzed and quantified for protein signals using ChemiDoc (iBright750, Invitrogen).
Data obtained through Western blotting were quantified using iBright analysis software, and the levels of all target proteins were normalized with GAPDH. […]

HeLa cells [4] = test: Cancer cell migration assay in HeLa cells; format: cell-based; conditions: CDK9 PROTAC 40 nM and IU1-47 20 μM in combination; every 12 hours; FIG. 18
Protocol: Microscopic images were taken using an inverted fluorescence microscope (Olympus) through a 10× magnification lens every 12 hours, and the width of the intercellular region was measured using ImageJ software.
To this end, HeLa cells were treated with CDK9 PROTAC (40 nM) and IU1-47 (20 μM) compounds separately or in combination, and the migration of HeLa cells was confirmed every 12 hours.

HeLa cells [5] = test: Cancer cell colony formation assay in HeLa cells; format: cell-based; conditions: CDK9 PROTAC 10-100 nM and IU1-47 20 μM in combination; one week; FIG. 19
Protocol: Afterwards, the medium was replaced with a compound-containing medium, and then the cells were further cultured in the incubator under the same conditions for one week. The cultured cancer cells at the end were stained with 0.25% crystal violet staining solution containing 20% methanol for 1 hour, and then washed with ultrapure distilled water and dried at room temperature for one day. Cell images were captured using a camera or iBright CL750 (Thermo Fisher), the number of colonies was analyzed using iBright analysis software, and the size of colonies was analyzed using ImageJ software.
As another example to confirm the anticancer effect by the degradation of CDK9 protein enhanced by the combined treatment of the IU1-series compound and CDK9 PROTAC, which was confirmed in Examples as described above, different concentrations of CDK9 PROTAC (10, 25 , 50, 75, 100 nM) and IU1-47 (20 μM) compounds were used separately or in combination for treatment, and one week later, the degree of colony formation of HeLa cancer cells by the effect of enhancing CDK9 PROTAC protein degradation capability by IU1-series compound, was confirmed.

SMILES: CO/C1=C\C(C)=C\[C@@H](C)[C@@H](O)[C@@H](C)C/C(C)=C/C=C/[C@H](OC)[C@@H]([C@@H](C)[C@@H](O)[C@H](C)[C@@]2(O)C[C@@H](O)[C@H](C)[C@@H](C(C)C)O2)OC1=O [bafilomycin A1, reference compound]
- CDK9 protein level when inhibitor is treated together with PROTAC and IU1 (CDK9 protein [1]): the degradation of CDK9 protein by the treatment with PROTAC and IU1 was still observed

SMILES: Cc1cc(C(=O)CN2CCCC2)c(C)n1-c1ccc(F)cc1 [IU1, 1-[1-(4-fluorophenyl)-2,5-dimethylpyrrol-3-yl]-2-pyrrolidin-1-ylethanone]
- Enhancement of SHP-2 protein degradation by SHP-2 PROTAC (SHP-2 protein): SHP-2 PROTAC concentration-dependent enhancement of SHP-2 protein degradation
- Enhancement of protein degradation capability of CDK9 PROTAC through the DC50 value, versus vehicle control (CDK9 protein [1]; HeLa, 75 μM of IU1 in combination): about 5 times
- Time-dependent effect on degradation effect of CDK9 PROTAC (CDK9 protein [1]; HeLa, CDK9 PROTAC 100 nM, IU1 50 μM, 0, 1, 3, 6, 12, 24 h, FIG. 15): accelerated the degradation effect of PROTAC
- Enhancement of CDK9 protein degradation capability by CDK9 PROTAC versus vehicle control (CDK9 protein [1]; HeLa, CDK9 PROTAC 0.1-250 nM, especially high concentration of IU1, FIGS. 7A, 7B): highly enhanced the CDK9 protein degradation capability
- Enhancement of protein degradation effect, CDK9 PROTAC concentration fixed (CDK9 protein [1]; HeLa, CDK9 PROTAC 5, 10, 20, 25 nM, IU1 10-100 μM, FIGS. 6A, 6B): the protein degradation effect was enhanced in an IU1 concentration-dependent manner at all concentrations
- CDK9 protein degradation effect of CDK9 PROTAC on combined treatment (CDK9 protein [1]; HeLa, IU1 50 μM with CDK9 PROTAC 1, 10, 25, 50, 100 nM, FIG. 4A): substantially increased
- Enhancement of CDK9 degradation effect by CDK9 PROTAC, IU1 concentration fixed (CDK9 protein [1]; HeLa, IU1 10, 25, 75, 100 μM, CDK9 PROTAC 1-100 nM, FIGS. 5A, 5B): enhanced the CDK9 degradation effect by CDK9 PROTAC in a PROTAC concentration-dependent manner at all concentrations except for the IU1 concentration at 10 μM
- CDK9 protein degradation on treatment with IU1 alone (CDK9 protein [1]; HeLa, maximum IU1 treatment concentration 50 μM, FIG. 4B): degradation of CDK9 protein did not occur
- Enhancement of BRD4 protein degradation effect of BRD4 PROTAC (BRD4 protein): concentration-dependent enhancement of the BRD4 protein degradation effect
- Anticancer effect of CDK9 PROTAC (IC50, cell growth inhibition) with IU1 in combination (HeLa cells [2]): significantly increased
- Enhancement of CDK9 degradation effect by CDK9 PROTAC, IU1 concentration fixed (CDK9 protein [3]; IU1 10, 25, 75, 100 μM (all concentrations), CDK9 PROTAC 1-50 nM, FIGS. 10A, 10B): enhanced the CDK9 degradation effect by CDK9 PROTAC in a PROTAC concentration-dependent manner
- Degradation effect for CDK9 protein, combination versus CDK9 PROTAC alone (CDK9 protein [3]; IU1 and CDK9 PROTAC in combination, FIG. 9): significantly increased

SMILES: CS(=O)(=O)c1ccc(NC(=O)c2cc(C#N)c(Sc3c(Cl)cncc3Cl)s2)cc1 [P50429, reference compound]
- Enhancement of degradation effect of CDK9 PROTAC (CDK9 protein [1]; HeLa, P50429 1 μM and 10 μM with CDK9 PROTAC, FIG. 17): did not enhance the degradation effect of PROTAC

SMILES: CC(C)C[C@@H](C=O)NC(=O)[C@H](CC(C)C)NC(=O)[C@H](CC(C)C)NC(=O)OCc1ccccc1 [MG132, reference compound] (Cbz-Leu-Leu-Leu-aldehyde)
- CDK9 protein level when inhibitor is treated together with PROTAC and IU1 (CDK9 protein [1]): the level of CDK9 protein was recovered similar to the control group

SMILES: Cc1cc(C(=O)CN2CCCCC2)c(C)n1-c1ccc(Cl)cc1 [IU1-47, 1-[1-(4-chlorophenyl)-2,5-dimethyl-1H-pyrrol-3-yl]-2-(1-piperidinyl)ethanone]
- Enhancement of protein degradation of PROTAC from DC50 values, versus CDK9 PROTAC alone (CDK9 protein [1]; HeLa, 20 μM IU1-47 in combination with CDK9 PROTAC, FIG. 13C): about 6 times
- Enhancement of degradation of PROTAC, CDK9 PROTAC concentration fixed (CDK9 protein [1]; HeLa, CDK9 PROTAC 5, 10, 20 nM, varying IU1-47, FIG. 14): significantly enhanced the degradation of PROTAC in a concentration-dependent manner
- CDK9 degradation on treatment with IU1-47 alone (CDK9 protein [1]; HeLa, FIG. 14): did not result in any degradation of CDK9
- Enhancement of protein degradation capability of CDK9 PROTAC versus vehicle (CDK9 protein [1]; HeLa, IU1-47 10 μM, 20 µM, 30 μM, CDK9 PROTAC 0.1-250 nM, FIGS. 13A, 13B): significantly enhanced at all concentrations of IU1-47
- Enhancement of degradation effect of CDK9 PROTAC, comparison with P50429 (CDK9 protein [1]; HeLa, IU1-47 20 μM, FIG. 17): significantly enhanced the degradation effect of PROTAC
- Enhancement of degradation effect of CDK9 PROTAC, comparison with PR-619 (CDK9 protein [1]; HeLa): significantly enhanced the degradation effect of PROTAC
- Targeted protein degradation capability of PROTAC, IU1-47 compared with IU1 (CDK9 protein [1]; in combination with PROTAC, see Example 6): more increased compared to when IU1 was treated in combination with PROTAC
- Migration or wound healing effect of HeLa cells, combination versus either alone (HeLa cells [4]): significantly inhibited
- Colony formation of HeLa cancer cells, combination versus either alone (HeLa cells [5]): significantly inhibited

SMILES: N#CSc1cc(SC#N)c(N)nc1N [PR-619, reference compound]
- Enhancement of degradation effect of CDK9 PROTAC, comparison with PR-619 (CDK9 protein [1]; HeLa): did not show the effect of enhancing the protein degradation of PROTAC at all treatment concentrations
